Test system: HSV-1
Assay: Efficacy in a cell culture test: HSV-1 infected human keratinocyte primary cultures, virus count by transmission electron microscopy
Type: cell-based
Conditions: cell culture medium containing 35 wt % D2O; 3 days after infection with HSV-1; 20 keratinocyte cells evaluated
Protocol: After a closed monolayer had formed in the cell culture dish and after desmosomes had developed, human keratinocyte primary cultures produced according to H. M. Reinl et al. (J. Invest. Dermatol. 1995; 105(2):291-5) were incubated with cell culture medium additionally containing 35 wt % D2O (sample) and/or H2O (controls). On the day of incubation, the sample and controls were infected with HSV-1. The infection was accomplished by adding the virus to the cell culture medium (10^7 viruses per cell culture dish in 1 mL cell culture medium). After 3 days (after infection), the sample and control groups were tested for the average number of viral particles per cell. The virus count was performed using a transmission electron microscope according to standard fixation and staining methods (glutaraldehyde and osmium tetroxide). In each case, 20 randomly selected keratinocyte cells from the sample group and the control group were evaluated with regard to the viral particles contained in them.

SMILES: [2H]O[2H] [D2O, deuterium oxide]
- average virus count (viral particles per cell): 10±4
